In patent US20120122832A1, “METHOD OF MAKING CEFQUINOME PARTICLES” (priority 2009, published 2012):
Where a name gives a salt, the structure may show the parent alone.

Key:
[1] = Particle size distribution of ethyl oleate formulations, Malvern Master Sizer with Hydro 2000G cell, Frauenhofer method; format: physicochemical; conditions: Table 1, Malvern Master Sizer
Experimental: The particle size was determined with a Malvern Master Sizer GMAL 01 with the Hydro 2000G measuring cell according to Frauenhofer method.

[2] = Particle size distribution (PSD) of precipitated cefquinome sulfate particles by laser light scattering; format: physicochemical
[3] = 1 minute stirring only in the measurement equipment
[4] = 10 minutes stirring + 6 minutes of ultrasound
[5] = 10 minutes stirring only in the measurement equipment

SMILES	D(0.50) [1] [μm]	D(0.90) [1] [μm]	D(100) [1] [μm]	PSD D(50) [2, 3] [μm]	PSD D(100) [2, 3] [μm]	PSD DE(90) [2, 3] [μm]	PSD D(50) [2, 4] [μm]	PSD D(100) [2, 4] [μm]	PSD DE(90) [2, 4] [μm]	PSD D(50) [2, 5] [μm]	PSD D(100) [2, 5] [μm]	PSD DE(90) [2, 5] [μm]
CO/N=C(\C(=O)N[C@@H]1C(=O)N2C(C(=O)[O-])=C(C[n+]3cccc4c3CCCC4)CS[C@H]12)c1csc(N)n1 [prior art non micronized material, cefquinome sulphate]	63.01	114.75	178.25	–	–	–	–	–	–	–	–	–
CO/N=C(\C(=O)N[C@@H]1C(=O)N2C(C(=O)[O-])=C(C[n+]3cccc4c3CCCC4)CS[C@H]12)c1csc(N)n1 [Example 8, Cefquinome sulfate]	–	–	–	4.78	239.9	66.97	0.15	5.01	1.98	3.34	11.48	5.95
